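48-hour exposure; five concentrations; linearly interpolated endpoints. GI50: concentration for 50% inhibition of growth. TGI is the concentration that stops growth completely.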
Tests used:
Assay in all cases: inhibition of tumour cell growth, NCI panel, 48 h
[1] = test system: CAKI-1 renal
[2] = test system: HCC-2998 colon
[3] = test system: HCT-15 colon
[4] = test system: MDA-MB-435
[5] = test system: MOLT-4 leukemia
[6] = test system: SF-268 CNS
[7] = test system: SK-OV-3 ovarian
[8] = test system: SR leukemia
[9] = test system: TK-10 renal
[10] = test system: U251 CNS

SMILES: Cc1nc2sc(C(=O)Nc3cccc4ccccc34)c(N)c2cc1C(=O)/C=C/c1ccccc1
- GI50 [1]: 0.422 µM
- TGI [1]: 1.44 µM
- GI50 [2]: 0.852 µM
- TGI [2]: 1.63 µM
- GI50 [3]: 0.185 µM
- TGI [3]: 0.789 µM
- GI50 [4]: 0.116 µM
- TGI [4]: 0.274 µM
- GI50 [5]: 0.251 µM
- TGI [5]: > 28.4 µM
- GI50 [6]: 1.15 µM
- TGI [6]: > 32.4 µM
- GI50 [7]: 1.35 µM
- TGI [7]: > 50 µM
- GI50 [8]: 0.164 µM
- TGI [8]: > 10.1 µM
- GI50 [9]: 1.28 µM
- TGI [9]: 8.88 µM
- GI50 [10]: 0.236 µM
- TGI [10]: 1.01 µM

SMILES: O=C1c2ccc3c4c5ccc(c24)C(=O)N1CCCOCCCCOCCCNCc1ccc(cc1)CNCCCOCCCCOCCCN(C3=O)C5=O
- GI50 [1]: 0.834 µM
- TGI [1]: 1.71 µM
- GI50 [2]: 0.928 µM
- TGI [2]: 1.68 µM
- GI50 [3]: 0.926 µM
- TGI [3]: 1.97 µM
- GI50 [4]: 0.873 µM
- TGI [4]: 1.59 µM
- GI50 [5]: 0.981 µM
- TGI [5]: 2.62 µM
- GI50 [6]: 0.972 µM
- TGI [6]: 2.43 µM
- GI50 [7]: 1.18 µM
- TGI [7]: 2.66 µM
- GI50 [8]: 0.621 µM
- TGI [8]: 2.62 µM
- GI50 [9]: 1.03 µM
- TGI [9]: 2.42 µM
- GI50 [10]: 0.832 µM
- TGI [10]: 1.64 µM

SMILES: CN(C)c1ccc(-c2cc(-c3ccc(Nc4nc(Nc5ccccc5)nc(Nc5ccc(Cl)cc5)n4)cc3)nc(N)n2)cc1
- GI50 [1]: 1.61 µM
- TGI [1]: 7.76 µM
- GI50 [2]: 13.7 µM
- TGI [2]: 87.9 µM
- GI50 [3]: 4.26 µM
- TGI [3]: > 100 µM
- GI50 [4]: 4.83 µM
- TGI [4]: 74.9 µM
- GI50 [5]: 1.8 µM
- TGI [5]: 7.87 µM
- GI50 [6]: 6.69 µM
- TGI [6]: 56.4 µM
- GI50 [7]: 18.8 µM
- TGI [7]: > 100 µM
- GI50 [8]: 1.39 µM
- TGI [8]: 5.02 µM
- GI50 [9]: 5.68 µM
- TGI [9]: 38.7 µM
- GI50 [10]: 5.06 µM
- TGI [10]: 25 µM
